Source: paper PMC5761851, “Application of a phenotypic drug discovery strategy to identify biological and chemical starting points for inhibition of TSLP production in lung epithelial cells” (PLoS ONE, 2018)
Several values for one entry are separate records, joined by “and”; a condition that tells them apart may be missing. Equal entries are not always repeated. Where two headings read alike, the source gives them in different places. Values belong to the compound of their own block, whether it stands above or below them.

Experiments:
[1] = target: T1, PDE4D2 (Homo sapiens, UniProt Q08499); assay: BioPrint panel: PDE4D2 (h); type: biochemical; settings: 1 micromolar, read-out: percentage of inhibition of activity
T1 construct: purchased Eurofins Pharma Discovery Services (KinaseProfiler; Cerep BioPrint panel)
Text: (§1) Supplement pone.0189247.s004.xlsx, sheet "Bioprint Selectivity Panel" | column: %

[2] = target: T2, alpha 2A (Homo sapiens, UniProt P08913); assay: BioPrint panel: alpha 2A (h) (antagonist); type: binding; settings: 1 micromolar, read-out: percentage of inhibition of activity
T2 construct: purchased Eurofins Pharma Discovery Services (KinaseProfiler; Cerep BioPrint panel)
Text: as §1

[3] = target: T3, PDE5 (Homo sapiens, UniProt O76074); assay: BioPrint panel: PDE5; type: biochemical
T3 construct: Eurofins Pharma Discovery Services (contract assay service)
Method: (§2) General selectivity profiling was performed at Eurofins Pharma Discovery Services using the BioPrint® panel and reference database. The panel included 104 binding assays (non-peptide, peptide and nuclear receptors, ion channels and amine transporters) and 41 cell based and enzyme assays (including 10 kinases, 9 proteases and 5 phosphodiesterases) (S4 Table). More than 70% were human targets. Compound 4 was tested at a concentration of 1 μM in duplicate (10 μM for P-gp and CYP enzymes). The resulting bioactivity fingerprint was compared with a database of >2,500 BioPrint marketed drugs and reference compounds. IC50 values for selected activities were further characterized at 8 concentrations in duplicate.

[4] = target: T4, 5-HT7 (Homo sapiens, UniProt P34969); assay: BioPrint panel: 5-HT7 (h) (agonist); type: binding; settings: 1 micromolar, read-out: percentage of inhibition of activity
T4 construct: purchased Eurofins Pharma Discovery Services (KinaseProfiler; Cerep BioPrint panel)
Text: as §1

[5] = target: T5, MMP-2 (Homo sapiens, UniProt P08253); assay: BioPrint panel: MMP-2 (h); type: biochemical; settings: 1 micromolar, read-out: percentage of inhibition of activity
T5 construct: purchased Eurofins Pharma Discovery Services (KinaseProfiler; Cerep BioPrint panel)
Text: as §1

[6] = target: T6, D3 (Homo sapiens, UniProt P35462); assay: BioPrint panel: D3 (h) (antagonist); type: binding; settings: 1 micromolar, read-out: percentage of inhibition of activity
T6 construct: purchased Eurofins Pharma Discovery Services (KinaseProfiler; Cerep BioPrint panel)
Text: as §1

[7] = target: T7, p38alpha kinase (Homo sapiens, UniProt Q16539); assay: BioPrint panel: p38alpha kinase (h); type: biochemical; settings: 1 micromolar, read-out: percentage of inhibition of activity
T7 construct: purchased Eurofins Pharma Discovery Services (KinaseProfiler; Cerep BioPrint panel)
Text: as §1

[8] = target: T8, GABAA1 (a1, b2, g2) (Homo sapiens, UniProt P14867+P47870); assay: BioPrint panel: GABAA1 (h) (a1, b2, g2)(agonist); type: binding; settings: 1 micromolar, read-out: percentage of inhibition of activity
T8 construct: purchased Eurofins Pharma Discovery Services (KinaseProfiler; Cerep BioPrint panel)
Text: as §1

[9] = system: N muscle-type; assay: BioPrint panel: N muscle-type (h) (antagonist); type: binding, human; settings: 1 micromolar
Text: as §1

[10] = target: T9, V2 (Homo sapiens, UniProt P30518); assay: BioPrint panel: V2 (h) (agonist); type: binding; settings: 1 micromolar, read-out: percentage of inhibition of activity
T9 construct: purchased Eurofins Pharma Discovery Services (KinaseProfiler; Cerep BioPrint panel)
Text: as §1

[11] = target: T10, dopamine transporter (Homo sapiens, UniProt Q01959); assay: BioPrint panel: dopamine transporter (h) (antagonist); type: binding; settings: 1 micromolar, read-out: percentage of inhibition of activity
T10 construct: purchased Eurofins Pharma Discovery Services (KinaseProfiler; Cerep BioPrint panel)
Text: as §1

[12] = target: T11, PDE3B (Homo sapiens, UniProt Q13370); assay: BioPrint panel: PDE3B (h); type: biochemical; settings: 1 micromolar, read-out: percentage of inhibition of activity
T11 construct: purchased Eurofins Pharma Discovery Services (KinaseProfiler; Cerep BioPrint panel)
Text: as §1

[13] = target: PDE6 (Bos taurus, UniProt P11541+P23439); assay: BioPrint panel: PDE6; type: biochemical
Method: as §2

[14] = target: PDE2A1 (Homo sapiens, UniProt O00408); assay: BioPrint panel: PDE2A1 (h); type: biochemical; settings: 1 micromolar, read-out: percentage of inhibition of activity
Text: as §1

[15] = target: T12, sst1 (Homo sapiens, UniProt P30872); assay: BioPrint panel: sst1 (h) (agonist); type: binding; settings: 1 micromolar, read-out: percentage of inhibition of activity
T12 construct: purchased Eurofins Pharma Discovery Services (KinaseProfiler; Cerep BioPrint panel)
Text: as §1

[16] = target: T13, NK1 (Homo sapiens, UniProt P25103); assay: BioPrint panel: NK1 (h) (agonist); type: binding; settings: 1 micromolar, read-out: percentage of inhibition of activity
T13 construct: purchased Eurofins Pharma Discovery Services (KinaseProfiler; Cerep BioPrint panel)
Text: as §1

[17] = target: T14, ETB (Homo sapiens, UniProt P24530); assay: BioPrint panel: ETB (h) (agonist); type: binding; settings: 1 micromolar, read-out: percentage of inhibition of activity
T14 construct: purchased Eurofins Pharma Discovery Services (KinaseProfiler; Cerep BioPrint panel)
Text: as §1

[18] = target: T15, alpha 2C (Homo sapiens, UniProt P18825); assay: BioPrint panel: alpha 2C (h) (antagonist); type: binding; settings: 1 micromolar, read-out: percentage of inhibition of activity
T15 construct: purchased Eurofins Pharma Discovery Services (KinaseProfiler; Cerep BioPrint panel)
Text: as §1

[19] = target: T16, MCH1 (Homo sapiens, UniProt Q99705); assay: BioPrint panel: MCH1 (h) (agonist); type: binding; settings: 1 micromolar, read-out: percentage of inhibition of activity
T16 construct: purchased Eurofins Pharma Discovery Services (KinaseProfiler; Cerep BioPrint panel)
Text: as §1

[20] = target: T17, UT (Homo sapiens, UniProt Q9UKP6); assay: BioPrint panel: UT (h) (agonist); type: binding; settings: 1 micromolar, read-out: percentage of inhibition of activity
T17 construct: purchased Eurofins Pharma Discovery Services (KinaseProfiler; Cerep BioPrint panel)
Text: as §1

[21] = target: Syk (Homo sapiens, UniProt P43405); assay: Enzymatic Syk kinase activity assay; type: biochemical
[22] = system: Ca2+ channel (L, verapamil site); assay: BioPrint panel: Ca2+ channel (L, verapamil site) (antagonist); type: binding; settings: 1 micromolar
Text: as §1

[23] = target: T18, M1 (Homo sapiens, UniProt P11229); assay: BioPrint panel: M1 (h) (antagonist); type: binding; settings: 1 micromolar, read-out: percentage of inhibition of activity
T18 construct: purchased Eurofins Pharma Discovery Services (KinaseProfiler; Cerep BioPrint panel)
Text: as §1

[24] = target: T19, H1 (Homo sapiens, UniProt P35367); assay: BioPrint panel: H1 (h) (antagonist); type: binding; settings: 1 micromolar, read-out: percentage of inhibition of activity
T19 construct: purchased Eurofins Pharma Discovery Services (KinaseProfiler; Cerep BioPrint panel)
Text: as §1

[25] = target: T20, EP2 (Homo sapiens, UniProt P43116); assay: BioPrint panel: EP2 (h) (agonist); type: binding; settings: 1 micromolar, read-out: percentage of inhibition of activity
T20 construct: purchased Eurofins Pharma Discovery Services (KinaseProfiler; Cerep BioPrint panel)
Text: as §1

[26] = system: LAD2 cells degranulation; assay: Syk dependent LAD2 cells degranulation; type: cell-based, human
Method: Normal human bronchial epithelial cells (NHBE) (Lonza CC-2540,) corresponding to 2 different lots derived from 2 human healthy donors, henceforth referred to as donors #1 and #2, were purchased from Lonza, who provided the cells after obtaining permission for use in research applications by informed consent. Cells were cultured in 5% CO2 at 37°C according to the manufacturer´s instructions using Lonza´s Bronchial Epithelial Basal Medium (BEBM) (CC-3171) supplemented with Lonza´s Bronchial Epithelial Cell Growth Medium bullet kit (BEGM) (CC-4175), and grown in collagen coated T-75 and T-175 tissue culture flasks as required (Becton Dickinson 356485 and 356487). Subculturing after trypsinization and amplification was performed using Lonza´s reagent pack subculture reagents (CC-5034) following the manufacturer´s instructions. CHO-K1 and THP-1 cells were purchased from the ATCC through LGC standards (ATCC CCL-61 and TIB-202 respectively). The LAD2 cell line is a human mast cell line established at the National Institutes of Health (Bethesda, Maryland, U.S.).
Quantification of enzymatic p38 activity and p38-dependent TNF production in THP-1 cells was performed as previously described. Enzymatic Syk kinase activity assays and Syk dependent LAD2 cells degranulation assays were performed as previously described. PI3Kδ dependent pAkt phosphorylation in macrophage colony-stimulating factor (M-CSF) stimulated THP-1 cells was measured as previously described.

[27] = target: p38α (Homo sapiens, UniProt Q16539); assay: enzymatic p38 activity; type: biochemical
p38α, sequence (Q16539 whole entry): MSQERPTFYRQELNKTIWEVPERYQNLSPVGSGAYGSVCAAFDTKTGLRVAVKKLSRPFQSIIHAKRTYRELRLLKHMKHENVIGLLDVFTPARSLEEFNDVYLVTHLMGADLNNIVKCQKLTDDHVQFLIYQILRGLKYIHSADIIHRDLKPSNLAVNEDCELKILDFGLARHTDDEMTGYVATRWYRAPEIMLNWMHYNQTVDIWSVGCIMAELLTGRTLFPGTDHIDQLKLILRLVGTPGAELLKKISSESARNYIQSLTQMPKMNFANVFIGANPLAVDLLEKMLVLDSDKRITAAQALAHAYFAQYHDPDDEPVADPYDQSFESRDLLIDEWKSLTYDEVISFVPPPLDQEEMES

PDE6, sequence (P11541 2-856): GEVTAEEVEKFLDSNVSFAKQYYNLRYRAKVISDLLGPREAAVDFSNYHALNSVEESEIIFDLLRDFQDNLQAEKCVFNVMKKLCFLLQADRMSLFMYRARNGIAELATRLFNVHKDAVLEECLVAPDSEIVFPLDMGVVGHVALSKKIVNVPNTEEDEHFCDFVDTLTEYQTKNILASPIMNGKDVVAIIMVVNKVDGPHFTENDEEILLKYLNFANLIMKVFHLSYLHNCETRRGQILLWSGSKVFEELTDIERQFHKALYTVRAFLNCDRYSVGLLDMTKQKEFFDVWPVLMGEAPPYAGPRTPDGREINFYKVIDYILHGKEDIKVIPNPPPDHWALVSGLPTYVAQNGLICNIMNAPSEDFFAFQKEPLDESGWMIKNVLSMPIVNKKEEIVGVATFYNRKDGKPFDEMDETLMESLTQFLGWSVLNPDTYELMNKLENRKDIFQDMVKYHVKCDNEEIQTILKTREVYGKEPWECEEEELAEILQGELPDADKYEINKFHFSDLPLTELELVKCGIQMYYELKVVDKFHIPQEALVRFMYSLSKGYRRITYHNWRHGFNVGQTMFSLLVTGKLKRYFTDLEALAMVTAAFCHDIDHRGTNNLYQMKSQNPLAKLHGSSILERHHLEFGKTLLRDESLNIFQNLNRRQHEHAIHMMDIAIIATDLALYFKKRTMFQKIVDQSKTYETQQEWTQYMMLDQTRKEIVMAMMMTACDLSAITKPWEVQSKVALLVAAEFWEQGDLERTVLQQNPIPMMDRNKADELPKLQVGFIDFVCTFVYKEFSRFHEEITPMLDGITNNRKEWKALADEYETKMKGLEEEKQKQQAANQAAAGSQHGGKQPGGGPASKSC
PDE6, sequence (P23439 2-850): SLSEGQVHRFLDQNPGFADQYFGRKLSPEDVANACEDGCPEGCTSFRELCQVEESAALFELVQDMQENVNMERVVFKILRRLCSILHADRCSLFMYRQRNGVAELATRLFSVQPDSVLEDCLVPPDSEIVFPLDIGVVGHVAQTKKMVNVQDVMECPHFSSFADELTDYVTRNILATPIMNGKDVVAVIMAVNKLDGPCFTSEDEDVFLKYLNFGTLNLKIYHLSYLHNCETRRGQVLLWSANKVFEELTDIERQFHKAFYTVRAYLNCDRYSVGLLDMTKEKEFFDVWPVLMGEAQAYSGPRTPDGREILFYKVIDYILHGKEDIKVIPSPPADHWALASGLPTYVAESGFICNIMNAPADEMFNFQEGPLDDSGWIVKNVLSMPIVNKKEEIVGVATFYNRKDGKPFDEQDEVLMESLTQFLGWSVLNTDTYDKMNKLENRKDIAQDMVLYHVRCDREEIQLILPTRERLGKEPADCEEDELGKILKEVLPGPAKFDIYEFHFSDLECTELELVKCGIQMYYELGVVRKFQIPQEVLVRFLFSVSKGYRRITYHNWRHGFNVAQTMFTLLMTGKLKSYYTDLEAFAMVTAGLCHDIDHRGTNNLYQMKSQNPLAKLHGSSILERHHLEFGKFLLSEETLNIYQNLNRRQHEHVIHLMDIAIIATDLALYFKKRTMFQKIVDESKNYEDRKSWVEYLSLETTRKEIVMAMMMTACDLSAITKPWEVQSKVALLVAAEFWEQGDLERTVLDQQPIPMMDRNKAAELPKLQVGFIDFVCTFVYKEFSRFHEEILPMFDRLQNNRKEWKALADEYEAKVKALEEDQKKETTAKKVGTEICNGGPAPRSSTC
PDE6, sequence (P04972 whole entry partner): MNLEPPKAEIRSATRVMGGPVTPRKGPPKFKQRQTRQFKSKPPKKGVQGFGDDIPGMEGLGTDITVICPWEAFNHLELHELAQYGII
T16 sequence (Q99705 whole entry): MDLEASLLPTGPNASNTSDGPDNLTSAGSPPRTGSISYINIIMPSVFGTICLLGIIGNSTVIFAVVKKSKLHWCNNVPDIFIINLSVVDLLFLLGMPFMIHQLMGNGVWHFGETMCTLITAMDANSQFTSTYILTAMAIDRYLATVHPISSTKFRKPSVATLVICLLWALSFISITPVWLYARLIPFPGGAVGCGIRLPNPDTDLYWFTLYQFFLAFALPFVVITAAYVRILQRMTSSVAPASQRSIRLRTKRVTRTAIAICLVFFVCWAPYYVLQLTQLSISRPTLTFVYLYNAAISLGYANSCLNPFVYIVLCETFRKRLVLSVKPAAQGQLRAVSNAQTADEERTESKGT
T7 sequence (Q16539 whole entry): as the sequence (Q16539 whole entry) above
T5 sequence (P08253 110-660): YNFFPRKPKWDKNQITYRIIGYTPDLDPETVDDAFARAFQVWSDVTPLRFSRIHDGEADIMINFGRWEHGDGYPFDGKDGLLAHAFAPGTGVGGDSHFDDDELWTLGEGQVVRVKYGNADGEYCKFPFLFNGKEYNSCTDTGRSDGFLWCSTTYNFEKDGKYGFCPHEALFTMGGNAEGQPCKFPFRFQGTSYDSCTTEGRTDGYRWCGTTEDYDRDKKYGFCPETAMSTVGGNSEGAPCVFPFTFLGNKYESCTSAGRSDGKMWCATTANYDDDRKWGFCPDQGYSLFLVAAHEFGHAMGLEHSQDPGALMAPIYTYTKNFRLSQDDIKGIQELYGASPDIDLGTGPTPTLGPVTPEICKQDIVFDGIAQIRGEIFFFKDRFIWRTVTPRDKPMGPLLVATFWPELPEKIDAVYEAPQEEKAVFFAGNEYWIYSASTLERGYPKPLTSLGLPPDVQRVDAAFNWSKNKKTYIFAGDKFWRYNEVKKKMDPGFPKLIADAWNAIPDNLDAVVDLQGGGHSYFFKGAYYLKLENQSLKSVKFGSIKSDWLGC
PDE2A1, sequence (O00408 49-941 limits assumed): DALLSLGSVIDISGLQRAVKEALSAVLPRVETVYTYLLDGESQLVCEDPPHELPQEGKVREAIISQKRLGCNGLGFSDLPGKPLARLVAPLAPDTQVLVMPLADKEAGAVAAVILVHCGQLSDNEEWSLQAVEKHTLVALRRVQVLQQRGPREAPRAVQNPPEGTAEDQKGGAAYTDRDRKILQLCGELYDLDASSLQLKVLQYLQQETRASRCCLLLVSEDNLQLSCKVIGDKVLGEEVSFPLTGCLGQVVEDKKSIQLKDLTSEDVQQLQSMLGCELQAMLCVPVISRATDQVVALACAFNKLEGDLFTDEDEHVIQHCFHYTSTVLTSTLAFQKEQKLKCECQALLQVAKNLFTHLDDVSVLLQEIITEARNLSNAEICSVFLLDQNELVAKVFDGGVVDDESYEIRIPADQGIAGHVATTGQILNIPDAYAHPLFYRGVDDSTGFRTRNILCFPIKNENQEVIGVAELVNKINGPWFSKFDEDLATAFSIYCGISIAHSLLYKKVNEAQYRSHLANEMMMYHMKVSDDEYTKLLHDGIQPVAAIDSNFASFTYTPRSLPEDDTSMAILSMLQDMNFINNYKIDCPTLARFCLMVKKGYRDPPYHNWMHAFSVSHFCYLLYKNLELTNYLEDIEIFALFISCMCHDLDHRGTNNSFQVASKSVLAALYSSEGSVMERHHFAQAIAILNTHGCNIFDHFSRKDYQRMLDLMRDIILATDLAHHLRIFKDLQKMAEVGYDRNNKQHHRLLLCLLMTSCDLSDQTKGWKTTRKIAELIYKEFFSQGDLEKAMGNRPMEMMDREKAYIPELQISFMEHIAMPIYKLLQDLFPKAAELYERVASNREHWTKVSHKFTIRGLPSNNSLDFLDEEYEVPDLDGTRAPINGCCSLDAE
T4 sequence (P34969 whole entry): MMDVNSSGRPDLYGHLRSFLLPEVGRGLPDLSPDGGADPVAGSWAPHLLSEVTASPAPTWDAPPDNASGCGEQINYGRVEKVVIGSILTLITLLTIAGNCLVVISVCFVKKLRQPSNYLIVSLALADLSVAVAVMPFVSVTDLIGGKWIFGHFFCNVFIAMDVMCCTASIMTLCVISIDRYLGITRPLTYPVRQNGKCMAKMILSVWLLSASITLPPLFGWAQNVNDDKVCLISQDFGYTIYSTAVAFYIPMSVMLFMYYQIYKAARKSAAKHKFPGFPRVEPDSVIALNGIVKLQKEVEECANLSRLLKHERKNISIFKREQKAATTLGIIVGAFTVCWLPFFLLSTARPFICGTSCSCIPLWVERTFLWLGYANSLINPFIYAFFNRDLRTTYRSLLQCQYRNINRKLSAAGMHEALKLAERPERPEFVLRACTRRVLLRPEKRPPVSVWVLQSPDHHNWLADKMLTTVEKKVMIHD
T19 sequence (P35367 whole entry): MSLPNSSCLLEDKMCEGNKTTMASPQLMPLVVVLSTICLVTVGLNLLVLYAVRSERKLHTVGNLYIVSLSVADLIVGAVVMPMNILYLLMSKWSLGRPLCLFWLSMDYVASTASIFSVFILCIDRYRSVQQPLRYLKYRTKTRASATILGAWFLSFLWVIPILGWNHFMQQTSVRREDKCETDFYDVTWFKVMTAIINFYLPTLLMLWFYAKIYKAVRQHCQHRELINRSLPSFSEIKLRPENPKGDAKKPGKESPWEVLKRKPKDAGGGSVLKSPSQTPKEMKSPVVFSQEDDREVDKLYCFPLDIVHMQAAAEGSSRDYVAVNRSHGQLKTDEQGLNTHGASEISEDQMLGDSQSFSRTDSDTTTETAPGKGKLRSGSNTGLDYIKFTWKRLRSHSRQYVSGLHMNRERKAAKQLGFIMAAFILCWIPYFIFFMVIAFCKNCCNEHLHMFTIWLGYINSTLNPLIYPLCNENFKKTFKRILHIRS

Compound: Cn1cc(-c2cccc(-c3nc(C(=O)NC4C5CC6CC4CC(O)(C6)C5)c(N)nc3N)c2)cn1 (stereo not drawn) [compound 4]
inhibition at 1 µM [1]: 3%
inhibition at 1 µM [2]: 6.2%
inhibition at 1 µM ([3]; 1 μM, read-out: inhibition of PDE5): 61%
inhibition at 1 µM ([3]; 1 micromolar, PDE5 (h) (non-selective), read-out: percentage of inhibition of activity): 61.5%
IC50 ([3]; dose response, duplicate, read-out: Inhibition of indicated activity (IC50, μM): PDE5): 0.92 µM
inhibition at 1 µM [4]: -4.3%
inhibition at 1 µM [5]: 13.6%
inhibition at 1 µM [6]: -4.2%
inhibition at 1 µM [7]: 1.5%
inhibition at 1 µM [8]: -16%
percentage of inhibition of activity [9]: -17.1%
inhibition at 1 µM [10]: 0%
inhibition at 1 µM [11]: 7.5%
inhibition at 1 µM [12]: 5.8%
inhibition at 1 µM ([13]; 1 μM, read-out: inhibition of PDE6): 55%
inhibition at 1 µM ([13]; 1 micromolar, PDE6 (non-selective), read-out: percentage of inhibition of activity): 55.6%
inhibition at 1 µM [14]: 6.7%
inhibition at 1 µM [15]: 1.2%
inhibition at 1 µM [16]: 11.6%
inhibition at 1 µM [17]: -6.7%
inhibition at 1 µM [18]: -14.1%
inhibition at 1 µM [19]: 34.6%
inhibition at 1 µM [20]: 7.4%
IC50 ([21]; geometric mean, read-out: Activity in reference biochemical assay (IC50, μM) (95% CI) Syk): 11.8 µM
IC50 ([21]; individual values, read-out: Biochemical activity (IC50, mM) (Syk)): 12.2 µM and 11.4 µM
percentage of inhibition of activity [22]: 6.4%
inhibition at 1 µM [23]: -16.7%
inhibition at 1 µM [24]: -0.5%
inhibition at 1 µM [25]: -23.9%

Compound: CS(=O)(=O)N1CCN(c2ccc(Nc3ncc(C(N)=O)c(NC4CC4)n3)cc2)CC1 [compound 5]
IC50 ([26]; Homo sapiens, LAD2, geometric mean, read-out: Activity in reference cell based assay (IC50, μM) (95% CI) LAD2 cells degranulation): 0.019 µM
IC50 ([26]; individual values, read-out: Cellular activity (IC50, mM) LAD2 cells degranulation): 0.0341 µM and 0.015 µM and 0.0149 µM

IC50 ([27]; geometric mean, read-out: Activity in reference biochemical assay (IC50, μM) (95% CI) p38α): 0.003 µM
IC50 ([27]; individual values, read-out: Biochemical activity (IC50, mM) (p38a)): 0.008 µM and 0.005 µM and 0.001 µM
Compound: COc1c(NC(=O)c2ccc(C)c(-c3nnc4c(NCC(C)(C)C)nccn34)c2)cc(C(C)(C)C)cc1NS(C)(=O)=O [compound 7, reference compound]
